From patent US20180153990A1, “PCA1 PROTEIN AND METHODS OF TREATING PNEUMOCYSTIS PNEUMONIA INFECTION” (priority 2016, published 2018)

Columns and labels:
[1] = test system: Pneumocystis; experiment: Pcp-IRIS model: physiologic assessment (body weight, lung compliance, lung resistance); assay type: in vivo, SCID mice; conditions: treatment started when mice showed clinical signs of Pcp-IRIS
Description: Severe combined immune deficient (SCID) mice on a C.B-17 background are maintained in a specific pathogen-free colony at University of Rochester Medical Center. For these studies, 6-8 week old female mice were infected with Pneumocystis by intratracheal inoculation with 1×10^5 Pneumocystis cysts and then also cohoused with other Pneumocystis-infected SCID mice to ensure infection. The mice were fed acidified water and sterile food. Immune reconstitution (IR) was initiated three weeks after infection by giving mice an intraperitoneal (i.p.) injection of 5×10^7 splenocytes from wild-type C.B-17 mice. All animals involved were treated ethically according to the guidelines from the Association for Assessment and Accreditation of Laboratory Care International (AAALAC International), and the protocols used were approved by the University Committee on Animal Resources.
Lung resistance and compliance were measured on living ventilated mice using a Harvard rodent ventilator (Harvard Apparatus, Southnatic, Mass.) and a whole body plethysmograph (BUXCO Electronics Inc., Wilmington, N.C.) as previously described (Wang et al., “Immune Modulation With Sulfasalazine Attenuates Immunopathogenesis but Enhances Macrophage-Mediated Fungal Clearance During Pneumocystis Pneumonia,” PLoS Pathog. 6:e1001058 (2010), which is hereby incorporated by reference in its entirety). […]

[2] = test system: alveolar macrophages; experiment: Effect of antibody administration during Pcp on alveolar macrophage phenotype (iNOS M1 / YM-1 M2 staining); assay type: in vivo, SCID mice
Experimental: For this experiment the Pneumocystis-infected mice were treated as above except that they received only 2 doses of specific antibody, nonspecific antibody or sulfasalazine on days 1 and 3 and then sacrificed later in the day on day 3. BALF aliquots containing 5×10^4 cells in HBSS were cytospun onto glass slides, fixed with 3% paraformaldehyde in PBS for 15 minutes at room temperature; rinsed 3× in PBS; and permeabilized with 0.02% Triton X-100 in PBS for 15 minutes at room temperature. The slides were then rinsed 3× in PBS, blocked with species specific 5% normal serum (normal goat serum, MP Biomedical; normal donkey serum, EMD Millipore) in 0.05% Tween-20 in PBS (PBS-T) for 1 hr at room temperature and rinsed 3× in PBS-T. Alveolar macrophages were identified by staining with fluorescein labeled primary antibody to CD11c. Staining with antibody to iNOS was used to identify M1 macrophages while staining with antibody to YM-1 was considered a marker for M2 macrophages (Abcam and Stemcell).
To test the effect of immune modulation, by administration of sulfasalazine or passive immunization, on macrophage phenotype during response to Pneumocystis, these agents or control nonspecific antibody were administered and alveolar macrophages were harvested after 3 days.

## O=C(O)c1cc(/N=N/c2ccc(S(=O)(=O)Nc3ccccn3)cc2)ccc1O [SSZ, sulfasalazine]
[1]
  severity of Pcp (recovery of body weight, pulmonary function): reduced severity of Pcp
[2]; Treatment Day 3
  M1 phenotype alveolar macrophages: 200 per 300 macrophages counted
  M2 phenotype alveolar macrophages: 100 per 300 macrophages counted
[2]; after 3 days
  proportion of M2 type macrophages in the alveolar space: increase
